Reference: article PMC11798738, “Targeting ASK1 by CS17919 alleviates kidney‐ and liver‐related diseases in murine models” (Animal Models and Experimental Medicine, 2024)

Legend:
[1] = target: CYP 2C9 (Homo sapiens, UniProt P11712); assay: CYP inhibition in vitro; format: in vitro ADME
[2] = target: CYP 2C19 (Homo sapiens, UniProt P33261); assay: CYP inhibition in vitro; format: in vitro ADME
[3] = system: L02 cells; assay: Effects of the drugs on L02 cells (Figure S1C); format: cell-based, human; details: 0.3–10 μmol/L
Experimental: FIGURE S1 (A) Chemical structural formulae of CS17919 and GS-4997. (B) Viability of L02 cells 72 h after 25–800 μmol/L (2-fold dilution) PA stimulation. (C) The effects of CS17919 and GS-4997 at different doses (0.3–10 μmol/L) on L02 cells. (D) Kidney weights in the UUO model. (E) Renal coefficients in the DKD model. (F) Urine ALB in the DKD model. (G) Liver weights in the NASH model. *: PA vs. Blank; GS-4997 vs. DMSO; Treatment vs. Model. #: CS17919 vs. DMSO; Control vs. Model. * p < 0.05, ## p < 0.01, *** p < 0.001, #### and **** p < 0.0001 were obtained by one-way ANOVA.

[4] = target: CYP 2B6 (Homo sapiens, UniProt P20813); assay: CYP inhibition in vitro; format: in vitro ADME
[5] = system: NASH mouse model; assay: CCL4- and HFD-induced NASH mouse model; format: in vivo, C57BL/6J mice; details: data not shown; model group 5/9
[6] = target: CYP 2C8 (Homo sapiens, UniProt P10632); assay: CYP inhibition in vitro; format: in vitro ADME
[7] = Metabolic stability in liver microsomes; format: in vitro ADME; details: Human
[8] = Tissue distribution in mice, oral; format: in vivo, C57BL/6J mice; details: 20 mg/kg gavage
Experimental: Male C57BL/6J mice at 6–8 weeks (Beijing Huafukang Biotechnology Co., Ltd) were also selected for tissue distribution studies. Mice were gavage‐administered at 20 mg/kg and anesthetized at 1, 2, 4, and 8 h after administration for tissue collection, including whole blood, heart, liver, kidney, and brain. These organs were homogenized using a tissue homogenizer and analyzed together with the plasma according to the standard LC/MS procedure.

[9] = system: UUO mouse model; assay: UUO mouse model of kidney injury and fibrosis; format: in vivo, C57BL/6J mice
Experimental: 55 C57BL/6J mice, male, 6–8 weeks old were purchased from Chengdu Pharmachem Biotechnology Co. (Chengdu, China) and randomly divided into 5 groups according to their body weight: Sham (n = 10), Model (n = 15), CS17919L (10 mg/kg, n = 10), CS17919H (60 mg/kg, n = 10), and GS‐4997 (30 mg/kg, n = 10). The mice were anesthetized and fixed on the operating table, and the abdominal cortex and muscles were cut in the middle of the right side of the abdomen, and the ureter was searched for along the renal hilum. The ureter was separated using a glass split‐needle and ligated at the opening of the renal pelvis and the upper 1/3 of the ureter, and the ureter was cut between the two ligatures. Finally, the muscle and skin were closed with consecutive sutures, and animals were kept under observation until they awoke. Both the Sham and the Model group received solvent (0.2% CMC‐Na + 0.1% Tween‐80) orally twice daily. CS17919 and GS‐4997 were administered by gavage twice daily at the corresponding doses for 11 days. All treatments were started one day before surgical operation. All mice were sacrificed one day after administration with overnight fasting. Blood was collected, and serum was isolated for the analysis of urea nitrogen and creatinine. The kidney of each mouse was removed, weighed and fixed in 10% formalin solution for pathological study.
Masson staining was applied to determine kidney fibrosis in the UUO model. Thin 4 μm paraffin sections of each sample were used in this study, which followed the standard procedure. The sections were stained with Hematoxylin staining solution for 5–10 min and then washed, followed by staining with Ponceau S‐acid fuchsin stain for around 5–10 min. The sections were treated with 1% phosphomolybdic acid and Aniline Blue solution, and finally dehydrated stepwise in alcohol and sealed. VIS7.0 software was used to analyze the area of kidney fibrosis and the percentage of the fibrosis area in the scanning area was calculated.

[10] = Metabolic stability in liver microsomes; format: in vitro ADME; details: Mouse
[11] = target: CYP3A4 (Homo sapiens, UniProt P08684)
[12] = system: DKD mouse model; assay: STZ + HFD-induced DKD mouse model; format: in vivo, mice; details: 50 mg/kg gavage twice a day, ten weeks
Experimental: 26 male neonatal mice were purchased from Chengdu Pharmachem Biotechnology Co., 5 of which were assigned to the control group and fed a chow diet. The other 21 mice were subcutaneously injected with STZ ([…]) 48 h after birth. After 4 weeks, these mice were fed a high‐fat diet (HFD, Research Diet, New Brunswick, NJ, USA) and randomly subdivided into two groups based on blood glucose level followed by 6 h of fasting: Model (n = 11) and CS17919 (n = 10). Both the control and model groups were given the solvent mentioned above, administered orally twice a day, while CS17919 was administered twice a day by gavage at a dose of 50 mg/kg for 70 days. Body weight measurements were performed twice a week during the administration period. 24‐h urine was collected for each mouse 2 days before sacrifice. Creatinine clearance was calculated using the following formula: creatinine clearance = urinary creatinine (mg/dL) × urine volume per minute (ml/min)/blood creatinine (mg/dL). Fasting blood glucose was measured before sacrifice. After a 10‐week drug intervention, mice were sacrificed, and blood was collected to isolate serum for the urea nitrogen and serum creatinine test. The kidneys of each mouse were then removed, weighed and fixed in 10% formalin solution for pathological study.
PAS staining was applied to determine kidney glomerular sclerosis in the DKD model. Thin 4 μm paraffin sections of each sample were used in this study, which followed the standard procedure. Periodic acid‐treated paraffin sections were stained using Schiff for 10 min, after rinsing the residual acid. Hematoxylin staining was performed for 3 min, and the samples were then dehydrated and sealed. The PAS score was calculated by semiquantitative analysis as follows: 0, without sclerosis; 1, 1%–25% sclerosis area; 2, 26%–50% sclerosis area; 3, 51%–75% sclerosis area; 4, >75% sclerosis area.

[13] = CS17919 10 and 60 mg/kg, GS-4997 30 mg/kg, gavage twice daily, 11 days

Sequence of CYP 2B6 (P20813 whole entry): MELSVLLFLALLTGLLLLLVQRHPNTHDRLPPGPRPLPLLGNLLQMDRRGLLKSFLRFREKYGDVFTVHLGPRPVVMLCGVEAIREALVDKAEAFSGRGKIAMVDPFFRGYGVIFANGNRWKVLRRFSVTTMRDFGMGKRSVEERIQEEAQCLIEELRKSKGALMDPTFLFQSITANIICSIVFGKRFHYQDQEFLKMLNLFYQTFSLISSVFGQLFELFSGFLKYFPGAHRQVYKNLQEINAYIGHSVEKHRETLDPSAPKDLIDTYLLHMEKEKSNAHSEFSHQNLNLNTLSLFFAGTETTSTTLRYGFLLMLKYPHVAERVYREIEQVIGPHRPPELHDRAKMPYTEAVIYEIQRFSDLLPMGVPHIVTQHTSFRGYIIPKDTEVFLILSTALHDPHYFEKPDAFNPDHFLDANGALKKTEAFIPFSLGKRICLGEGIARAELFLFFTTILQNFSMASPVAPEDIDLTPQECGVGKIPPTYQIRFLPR
Sequence of CYP 2C19 (P33261 whole entry): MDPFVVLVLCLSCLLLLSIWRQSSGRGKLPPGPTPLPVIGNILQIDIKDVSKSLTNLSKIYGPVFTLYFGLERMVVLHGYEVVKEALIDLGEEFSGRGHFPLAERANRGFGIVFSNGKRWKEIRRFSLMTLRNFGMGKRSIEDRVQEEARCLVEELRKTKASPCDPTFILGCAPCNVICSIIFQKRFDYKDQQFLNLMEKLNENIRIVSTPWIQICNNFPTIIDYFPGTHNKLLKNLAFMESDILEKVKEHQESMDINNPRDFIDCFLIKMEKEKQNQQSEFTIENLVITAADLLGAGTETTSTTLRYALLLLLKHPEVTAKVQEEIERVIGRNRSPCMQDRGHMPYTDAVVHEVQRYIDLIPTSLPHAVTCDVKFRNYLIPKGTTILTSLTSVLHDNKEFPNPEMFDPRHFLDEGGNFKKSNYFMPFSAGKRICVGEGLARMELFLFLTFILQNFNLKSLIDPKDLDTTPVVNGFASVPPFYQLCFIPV
Sequence of CYP3A4 (P08684 whole entry): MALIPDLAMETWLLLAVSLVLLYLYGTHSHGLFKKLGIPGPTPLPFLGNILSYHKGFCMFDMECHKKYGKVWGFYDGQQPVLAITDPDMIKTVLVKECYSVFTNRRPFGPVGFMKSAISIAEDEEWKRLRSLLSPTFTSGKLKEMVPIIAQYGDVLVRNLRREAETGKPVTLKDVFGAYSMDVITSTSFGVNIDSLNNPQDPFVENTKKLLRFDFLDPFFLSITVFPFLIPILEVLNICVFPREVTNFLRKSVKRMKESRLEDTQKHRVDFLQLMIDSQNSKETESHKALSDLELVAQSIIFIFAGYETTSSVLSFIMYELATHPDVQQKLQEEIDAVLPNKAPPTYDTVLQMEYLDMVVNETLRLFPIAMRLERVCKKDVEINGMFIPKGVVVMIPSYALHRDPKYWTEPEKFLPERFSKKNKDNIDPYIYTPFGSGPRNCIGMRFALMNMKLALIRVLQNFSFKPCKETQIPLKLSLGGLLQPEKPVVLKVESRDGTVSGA
Sequence of CYP 2C9 (P11712 whole entry): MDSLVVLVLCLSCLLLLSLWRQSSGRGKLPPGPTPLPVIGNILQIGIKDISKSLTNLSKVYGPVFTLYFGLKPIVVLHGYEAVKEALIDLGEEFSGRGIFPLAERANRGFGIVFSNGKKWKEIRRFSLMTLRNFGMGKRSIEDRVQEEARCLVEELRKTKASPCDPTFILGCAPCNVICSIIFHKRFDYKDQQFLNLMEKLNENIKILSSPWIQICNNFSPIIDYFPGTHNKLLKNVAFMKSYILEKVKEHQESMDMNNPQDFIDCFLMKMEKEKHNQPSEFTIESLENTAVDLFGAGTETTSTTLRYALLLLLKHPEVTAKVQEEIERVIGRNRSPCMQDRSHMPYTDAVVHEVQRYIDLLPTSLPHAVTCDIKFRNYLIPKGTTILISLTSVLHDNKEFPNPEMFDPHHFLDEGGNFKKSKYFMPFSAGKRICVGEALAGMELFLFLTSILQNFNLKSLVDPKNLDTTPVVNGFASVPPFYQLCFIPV
Sequence of CYP 2C8 (P10632 whole entry): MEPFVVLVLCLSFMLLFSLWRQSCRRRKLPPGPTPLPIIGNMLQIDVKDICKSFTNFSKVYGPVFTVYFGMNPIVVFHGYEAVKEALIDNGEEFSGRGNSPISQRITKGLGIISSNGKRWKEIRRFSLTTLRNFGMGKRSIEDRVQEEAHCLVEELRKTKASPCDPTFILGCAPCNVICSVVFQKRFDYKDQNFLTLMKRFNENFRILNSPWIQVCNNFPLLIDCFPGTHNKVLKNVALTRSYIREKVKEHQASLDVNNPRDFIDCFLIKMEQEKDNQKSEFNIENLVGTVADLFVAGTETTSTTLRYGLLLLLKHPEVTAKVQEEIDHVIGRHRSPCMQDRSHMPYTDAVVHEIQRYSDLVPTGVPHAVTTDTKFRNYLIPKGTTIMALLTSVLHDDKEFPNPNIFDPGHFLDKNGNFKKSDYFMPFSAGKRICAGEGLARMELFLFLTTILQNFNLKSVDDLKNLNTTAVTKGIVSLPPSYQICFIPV

SMILES: Cc1cc(F)c(C(=O)Nc2cccc(-c3nncn3[C@H](C)C(F)(F)F)n2)cc1NC(=O)C1CC1 [CS17919]
- IC50 [1]: > 10 µM
- IC50 [2]: > 10 µM
- Safety in L02 cells [3]: safer than GS‐4997
- IC50 [4]: > 10 µM
- Occurrence of hepatocellular carcinoma (mice affected/group) [5]: 3/8
- IC50 [6]: > 10 µM
- T1/2 in liver microsomes [7]: >145 min
- Tissue accumulation [8]: tissue‐specific accumulation of CS17919 in the liver and kidney
- Brain concentration ([8]; 1 h, mean ± SD, n = 3): 30.42 ± 6.82 ng/g
- Heart concentration ([8]; 1 h, mean ± SD, n = 3): 1330.94 ± 384.66 ng/g
- Kidney concentration ([8]; 1 h, mean ± SD, n = 3): 4353.18 ± 260.20 ng/g
- Liver concentration ([8]; 1 h, mean ± SD, n = 3): 8933.89 ± 456.44 ng/g
- Plasma concentration ([8]; 1 h, mean ± SD, n = 3): 3104.56 ± 474.21 ng/mL
- Brain concentration ([8]; 2 h, mean ± SD, n = 3): 7.37 ± 1.98 ng/g
- Heart concentration ([8]; 2 h, mean ± SD, n = 3): 918.02 ± 156.73 ng/g
- Kidney concentration ([8]; 2 h, mean ± SD, n = 3): 2751.58 ± 252.41 ng/g
- Liver concentration ([8]; 2 h, mean ± SD, n = 3): 5322.41 ± 114.54 ng/g
- Plasma concentration ([8]; 2 h, mean ± SD, n = 3): 2737.71 ± 208.45 ng/mL
- Brain concentration ([8]; 4 h, mean ± SD, n = 3): 8.28 ± 4.78 ng/g
- Heart concentration ([8]; 4 h, mean ± SD, n = 3): 338.03 ± 97.76 ng/g
- Kidney concentration ([8]; 4 h, mean ± SD, n = 3): 1173.69 ± 135.53 ng/g
- Liver concentration ([8]; 4 h, mean ± SD, n = 3): 2371.88 ± 421.50 ng/g
- Plasma concentration ([8]; 4 h, mean ± SD, n = 3): 1444.51 ± 155.53 ng/mL
- Heart concentration ([8]; 8 h, mean ± SD, n = 3): 256.60 ± 117.57 ng/g
- Kidney concentration ([8]; 8 h, mean ± SD, n = 3): 993.13 ± 136.67 ng/g
- Liver concentration ([8]; 8 h, mean ± SD, n = 3): 1939.43 ± 337.32 ng/g
- Plasma concentration ([8]; 8 h, mean ± SD, n = 3): 856.1 ± 332.34 ng/mL
- Brain concentration ([8]; 8 h, LLOQ 1 ng/g): LLOQ (<1) ng/g
- Area of kidney fibrosis (Masson staining) [9, 13]: tendency to reduce
- Serum creatinine vs model group [9, 13]: non‐significant tendency to decrease
- Serum urea nitrogen vs model group [9, 13]: significantly reduced
- Inflammatory infiltration and interstitial fibrosis scores (H&E) ([9]; CS17919 high-dose group (60 mg/kg twice daily, 11 days)): improved significantly
- T1/2 in liver microsomes [10]: >145 min
- IC50 [11]: > 10 µM
- Blood glucose [12]: mildly reduced
- Body weight [12]: slight weight loss
- Creatinine clearance [12]: non‐significant tendency to improve
- Glomerular sclerosis score (PAS staining) vs model group [12]: significantly reduced
- Insulin sensitivity (serum insulin) vs model group [12]: slightly increased
- Renal coefficients [12]: improved
- Serum creatinine [12]: significantly lowered
- Serum urea nitrogen [12]: non‐significant tendency to reduce
